Results: US7601333B2, “Use of a tetrapeptide AcSDKP (SEQ ID No. 1) analog resistant to the angiotensin I converting enzyme for measuring glomerular filtration rate in a human or an animal and kit containing same” (Assistance Publique-Hopitaux de Paris, priority 2003, dated 2009)
Like-named read-outs stand apart in the source and are kept apart here. Each block holds one molecule with its values, some of them ahead of it. Residues, ends and D or L forms follow the SMILES beside them.

Key:
[1] = tested on: human ACE; experiment: In vitro degradation in the presence of human ACE; type: in vitro ADME; details: human converting enzyme (human ACE), peptide 100 nM, human converting enzyme 5 mU, pH 7.5, read-out: percentage of peptide assayed relative to the control; for remaining at 10 min, 100 nM: T10 min; for remaining at 0.5 h, 100 nM: T30 min; for remaining at 1 h, 100 nM: T60 min; for remaining at 2 h, 100 nM: T120 min; for remaining at 4 h, 100 nM: T240 min; for remaining at 24 h, 100 nM: T1440 min
Experimental: (§1) The peptides (100 nM) were incubated with ground rat lung material (at 0.1 mg/ml) or human converting enzyme (5 mU final concentration) in the presence or absence of captopril (10 μM final concentration) in 0.1 M Tris/HCl buffer+0.3 mM NaCl, pH=7.5. A control comprising only the peptides in the presence of 0.1 M Tris/HCl buffer+0.3 mM NaCl, pH=7.5, was carried out.
(§2) A methanol extraction was carried out in order to stop the reaction. At each time, the concentration of the nondegraded peptide was measured by enzyme immunoassay.
(§3) The results were expressed as percentage of peptide assayed relative to the control for each sample time.

[2] = target: human ACE (Homo sapiens, UniProt P12821); experiment: In vitro degradation in the presence of human ACE; type: in vitro ADME
human ACE (Homo sapiens, UniProt P12821), sequence (P12821 30-1306): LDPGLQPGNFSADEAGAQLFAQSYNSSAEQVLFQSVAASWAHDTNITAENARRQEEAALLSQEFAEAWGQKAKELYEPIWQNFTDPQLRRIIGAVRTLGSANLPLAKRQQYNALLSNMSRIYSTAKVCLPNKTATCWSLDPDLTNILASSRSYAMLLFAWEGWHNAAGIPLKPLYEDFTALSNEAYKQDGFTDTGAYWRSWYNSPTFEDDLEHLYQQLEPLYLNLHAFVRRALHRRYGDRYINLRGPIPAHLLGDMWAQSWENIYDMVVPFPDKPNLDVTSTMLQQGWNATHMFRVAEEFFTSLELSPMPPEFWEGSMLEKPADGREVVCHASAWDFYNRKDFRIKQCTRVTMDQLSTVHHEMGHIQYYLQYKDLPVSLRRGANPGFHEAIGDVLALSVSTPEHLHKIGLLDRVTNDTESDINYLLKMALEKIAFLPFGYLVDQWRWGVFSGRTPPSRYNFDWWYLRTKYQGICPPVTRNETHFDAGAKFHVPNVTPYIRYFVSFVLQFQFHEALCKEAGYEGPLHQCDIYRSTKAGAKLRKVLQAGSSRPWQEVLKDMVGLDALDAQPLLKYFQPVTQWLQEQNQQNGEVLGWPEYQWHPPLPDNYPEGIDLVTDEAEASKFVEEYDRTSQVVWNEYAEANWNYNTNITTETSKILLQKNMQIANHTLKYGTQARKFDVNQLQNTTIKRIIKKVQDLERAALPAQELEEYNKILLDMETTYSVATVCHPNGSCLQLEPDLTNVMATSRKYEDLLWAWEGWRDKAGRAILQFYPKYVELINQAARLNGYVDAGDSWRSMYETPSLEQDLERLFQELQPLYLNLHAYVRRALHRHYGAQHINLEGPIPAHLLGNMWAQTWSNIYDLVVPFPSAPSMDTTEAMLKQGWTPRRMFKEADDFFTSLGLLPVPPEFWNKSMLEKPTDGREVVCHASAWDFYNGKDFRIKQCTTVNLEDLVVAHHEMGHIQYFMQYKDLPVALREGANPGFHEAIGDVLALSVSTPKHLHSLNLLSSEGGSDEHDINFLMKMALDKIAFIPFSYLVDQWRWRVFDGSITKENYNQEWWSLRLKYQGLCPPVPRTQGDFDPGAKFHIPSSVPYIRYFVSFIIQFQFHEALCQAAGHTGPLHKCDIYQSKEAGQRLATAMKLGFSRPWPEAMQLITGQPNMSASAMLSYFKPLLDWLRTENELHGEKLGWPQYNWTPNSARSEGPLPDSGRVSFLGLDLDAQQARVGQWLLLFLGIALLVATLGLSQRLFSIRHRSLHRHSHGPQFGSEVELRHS
Experimental: as §1, §2, §3

[3] = target: T1, rat lung ACE (Rattus norvegicus, UniProt P47820); experiment: In vitro degradation in the presence of rat lung ACE; type: in vitro ADME; details: for percentage of peptide assayed relative to the control: peptide 100 nM, ground rat lung material 0.1 mg/ml, pH 7.5
T1 construct: incubated with ground rat lung material (at 0.1 mg/ml); from tissue; host or cells: rat lung (ground material)
T1 sequence (P47820 36-1313): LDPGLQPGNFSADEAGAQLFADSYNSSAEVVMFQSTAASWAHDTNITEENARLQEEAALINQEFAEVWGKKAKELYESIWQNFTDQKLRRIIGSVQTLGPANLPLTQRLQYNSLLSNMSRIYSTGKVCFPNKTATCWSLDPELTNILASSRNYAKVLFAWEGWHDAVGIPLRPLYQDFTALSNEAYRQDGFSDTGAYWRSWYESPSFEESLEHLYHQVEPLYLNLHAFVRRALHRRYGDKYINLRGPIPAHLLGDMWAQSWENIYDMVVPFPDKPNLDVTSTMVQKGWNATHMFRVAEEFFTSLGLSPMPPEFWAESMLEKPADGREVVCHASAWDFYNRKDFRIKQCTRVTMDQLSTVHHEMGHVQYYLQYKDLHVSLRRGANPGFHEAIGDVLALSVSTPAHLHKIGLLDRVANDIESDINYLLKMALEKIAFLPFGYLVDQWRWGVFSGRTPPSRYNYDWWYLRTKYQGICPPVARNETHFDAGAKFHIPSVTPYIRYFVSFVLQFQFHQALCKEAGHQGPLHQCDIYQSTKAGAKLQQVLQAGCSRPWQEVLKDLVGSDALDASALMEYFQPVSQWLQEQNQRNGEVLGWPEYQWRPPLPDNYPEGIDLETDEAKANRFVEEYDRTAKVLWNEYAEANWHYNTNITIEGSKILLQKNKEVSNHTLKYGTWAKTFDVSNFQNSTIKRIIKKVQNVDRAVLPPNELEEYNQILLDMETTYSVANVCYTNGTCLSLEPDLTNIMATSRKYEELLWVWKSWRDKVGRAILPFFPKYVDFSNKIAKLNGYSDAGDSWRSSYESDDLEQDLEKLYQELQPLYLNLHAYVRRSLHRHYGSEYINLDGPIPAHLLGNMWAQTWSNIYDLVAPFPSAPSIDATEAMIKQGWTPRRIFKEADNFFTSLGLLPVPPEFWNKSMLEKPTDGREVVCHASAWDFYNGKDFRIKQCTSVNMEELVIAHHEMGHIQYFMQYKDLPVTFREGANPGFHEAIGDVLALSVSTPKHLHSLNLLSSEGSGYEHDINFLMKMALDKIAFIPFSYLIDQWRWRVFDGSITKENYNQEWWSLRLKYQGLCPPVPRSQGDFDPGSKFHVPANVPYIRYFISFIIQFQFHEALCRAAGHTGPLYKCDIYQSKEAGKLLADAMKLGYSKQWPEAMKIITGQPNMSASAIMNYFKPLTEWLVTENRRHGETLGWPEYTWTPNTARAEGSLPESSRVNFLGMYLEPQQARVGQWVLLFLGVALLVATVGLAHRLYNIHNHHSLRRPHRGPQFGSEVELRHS
Experimental: as §1, §2, §3

[4] = tested on: T2, ACE (rat lung); experiment: as above; type: in vitro ADME; details: ground rat lung material (rat lung ACE), peptide 100 nM, ground rat lung material 0.1 mg/ml, pH 7.5, read-out: percentage of peptide assayed relative to the control; for remaining at 1 h, 100 nM: T60 min; for remaining at 2 h, 100 nM: T120 min; for remaining at 4 h, 100 nM: T240 min; for remaining at 0.5 h, 100 nM: T30 min
T2 construct: incubated with ground rat lung material (at 0.1 mg/ml); from tissue; host or cells: rat lung (ground material)
Experimental: as §1, §2, §3

[5] = in vivo; details: male, Wistar, rat, iv
[6] = with captopril 10 μM, + captopril 10 μM

Structure (SMILES): CC(=O)N[C@@H](CO)C(=O)N[C@@H](CC(=O)O)C(=O)N[C@@H](CCCCN)C(=O)N1CCC[C@H]1C(=O)O [AcSDKP, N-acetyl-Ser-Asp-Lys-Pro] (Ac-SDKP-OH; C-terminus assumed)
- remaining at 10 min, 100 nM [1, 6]: 90%
- remaining at 0.5 h, 100 nM [1, 6]: 100%
- remaining at 1 h, 100 nM [1, 6]: 85%
- remaining at 2 h, 100 nM [1, 6]: 85%
- remaining at 4 h, 100 nM [1, 6]: 100%
- remaining at 10 min, 100 nM ([1]; without captopril): 82%
- remaining at 0.5 h, 100 nM ([1]; without captopril): 75%
- remaining at 1 h, 100 nM ([1]; without captopril): 50%
- remaining at 2 h, 100 nM ([1]; without captopril): 25%
- remaining at 4 h, 100 nM ([1]; without captopril): 7%
- degradation by ACE of human origin ([2]; in vitro): degraded
- degradation by rat ACE ([3]; in vitro): degraded
- percentage of peptide assayed relative to the control ([3]; T30 min, + captopril 10 μM): 129%
- remaining at 1 h, 100 nM [4, 6]: 111%
- remaining at 2 h, 100 nM [4, 6]: 75%
- remaining at 4 h, 100 nM [4, 6]: 89%
- remaining at 0.5 h, 100 nM ([4]; without captopril): 28%
- remaining at 1 h, 100 nM ([4]; without captopril): 9%
- remaining at 2 h, 100 nM ([4]; without captopril): 5%
- remaining at 4 h, 100 nM ([4]; without captopril): 5%
- Vd ([5]; plasma): 0.353 L/kg
- level at time molar at 5 min ([5]; plasma): 5660 nM
- level at time molar at 10 min ([5]; plasma): 4980 nM
- level at time molar at 0.25 h ([5]; plasma): 4040 nM
- level at time molar at 1 h ([5]; plasma): 1000 nM
- level at time molar at 2 h ([5]; plasma): 218 nM
- level at time molar at 3 h ([5]; plasma): 60 nM
- level at time molar at 4 h ([5]; plasma): 22 nM
- level at time molar at 5 h ([5]; plasma): 11 nM
- level at time molar at 5 min ([5]; plasma, 1.2 mg/kg): 1820 nM
- level at time molar at 10 min ([5]; plasma, 1.2 mg/kg): 514 nM
- level at time molar at 0.25 h ([5]; plasma, 1.2 mg/kg): 194 nM
- level at time molar at 0.5 h ([5]; plasma, 1.2 mg/kg): 38 nM
- level at time molar at 1 h ([5]; plasma, 1.2 mg/kg): 8.2 nM
- level at time molar at 2 h ([5]; plasma, 1.2 mg/kg): 2.2 nM
- CL renal ([5]; urine and plasma, 1 mg/kg): 11.2 mL/min/kg
- dose excreted ([5]; urine, 1.2 mg/kg): 10.1%

- remaining at 10 min, 100 nM [1, 6]: 90%
- remaining at 1 h, 100 nM [1, 6]: 78%
- remaining at 2 h, 100 nM [1, 6]: 95%
- remaining at 4 h, 100 nM [1, 6]: 104%
- remaining at 24 h, 100 nM [1, 6]: 117%
- remaining at 10 min, 100 nM ([1]; without captopril): 79%
- remaining at 0.5 h, 100 nM ([1]; without captopril): 100%
- remaining at 1 h, 100 nM ([1]; without captopril): 116%
- remaining at 2 h, 100 nM ([1]; without captopril): 116%
- remaining at 4 h, 100 nM ([1]; without captopril): 107%
- remaining at 24 h, 100 nM ([1]; without captopril): 86%
- degradation by ACE of human origin ([2]; in vitro): does not appear to be degraded
- concentrations found ([2]; in vitro, relative to control): 100±25%
- percentage of peptide assayed relative to the control ([2]; peptide 100 nM, human converting enzyme 5 mU, pH 7.5, T30 min, + captopril 10 μM): 162%
- degradation by rat ACE ([3]; in vitro): does not appear to be degraded
- concentrations found ([3]; in vitro, relative to control): 100±25%
- percentage of peptide assayed relative to the control ([3]; T30 min, + captopril 10 μM): 125%
- percentage of peptide assayed relative to the control ([3]; T60 min, + captopril 10 μM): 65%
- percentage of peptide assayed relative to the control ([3]; T240 min, + captopril 10 μM): 136%
- percentage of peptide assayed relative to the control ([3]; T240 min, without captopril): 126%
- remaining at 2 h, 100 nM [4, 6]: 109%
- remaining at 0.5 h, 100 nM ([4]; without captopril): 100%
- remaining at 1 h, 100 nM ([4]; without captopril): 65%
- remaining at 2 h, 100 nM ([4]; without captopril): 95%
- AUC0-inf ([5]; plasma): 1490 ng·h/mL
- Vd ([5]; plasma): 0.284 L/kg
- clearance ([5]; plasma): 8.1 mL/min/kg
- half-life ([5]; plasma): 23.1 min
- level at 5 min ([5]; plasma): 3400 ng/mL
- level at 10 min ([5]; plasma): 2680 ng/mL
- level at 0.25 h ([5]; plasma): 1720 ng/mL
- level at 0.5 h ([5]; plasma): 1010 ng/mL
- level at 1 h ([5]; plasma): 450 ng/mL
- level at 2 h ([5]; plasma): 82 ng/mL
- level at 4 h ([5]; plasma): 3 ng/mL
- AUC0-inf ([5]; plasma, 0.82 mg/kg): 1230 ng·h/mL
- Vd ([5]; plasma, 0.82 mg/kg): 0.338 L/kg
- half-life ([5]; plasma, 0.82 mg/kg): 23.3 min
- level at 5 min ([5]; plasma, 0.82 mg/kg): 2830 ng/mL
- level at 10 min ([5]; plasma, 0.82 mg/kg): 2330 ng/mL
- level at 3 h ([5]; plasma, 0.82 mg/kg): 16 ng/mL
- level at 4 h ([5]; plasma, 0.82 mg/kg): 3 ng/mL
- AUC0-inf ([5]; plasma, 1 mg/kg): 1650 ng·h/mL
- Vd ([5]; plasma, 1 mg/kg): 0.266 L/kg
- clearance ([5]; plasma, 1 mg/kg): 8.1 mL/min/kg
Structure (SMILES): CC(=O)N[C@@H](CO)C(=O)N[C@@H](CC(=O)O)C(=O)N[C@@H](CCCCN)C(=O)N1CCC[C@H]1C(N)=O [AcSDKP-NH2, N-acetyl-Ser-Asp-Lys-Pro-NH2] (Ac-SDKP-NH2)
